Values joined by “and” are separate entries in the source; they are usually repeats but may differ in a detail not shown here. Equal values may be shown once. Read-outs that look alike come from different tables or passages of the source. Marks after values point to notes of the source that are not given here.
How the values were obtained:
[1] = tested on: IFNγ-induced NO production in RAW 264.7 cells; assay: Nitric oxide suppression assay (IFNγ-induced NO production, Griess nitrite readout); type: cell-based, mouse; details: for IC50: Mus musculus
[2] = tested on: AREc32 reporter cell line (luciferase reporter under eight copies of the rat GSTA2 ARE sequence); assay: AREc32 luciferase reporter activation; type: cell-based, human; details: for EC (2-fold): Homo sapiens, read-out: AREc32 EC2X (Mean ± SD)
[3] = RAW264.7, RAW 264.7 cells, 2 h pretreatment, 20 ng/mL interferon gamma 24 h, average of trials per footnote, read-out: NO IC50
[4] = Arec32, concentration that increases the luminescence signal 2-fold above vehicle, 19 h treatment

| SMILES | NO IC50 Rel. to RTA 402 [1] | IC50 [1, 3] | AREc32 EC2X Relative to RTA 402 (Mean ± SD) [2] | EC (2-fold) [2, 4] | times more active (NO IC50) than 63172 relative to RTA 402 [1] | IC50 ([1]; RAW264.7, read-out: NO IC50) | EC (2-fold) ([2]; Arec32, 19 h) | times more active (NO IC50) than 63170 relative to RTA 402 [1] | times more active (NO IC50) than 63183 relative to RTA 402 [1] |
| --- | --- | --- | --- | --- | --- | --- | --- | --- | --- |
| CC1(C)CC[C@]2(Cn3cnnc3)CC[C@]3(C)[C@H](C(=O)C=C4[C@@]5(C)C=C(C#N)C(=O)C(C)(C)[C@@H]5CC[C@]43C)[C@@H]2C1 [Compound T49] | 13.72 ± 3.47^e fold | 26.9 ± 10.5 nM | 4.5^e fold | 0.0389 µM |  |  |  |  |  |
| CC1(C)CC[C@]2(CN3CC4(COC4)C3)CC[C@]3(C)[C@H](C(=O)C=C4[C@@]5(C)C=C(C#N)C(=O)C(C)(C)[C@@H]5CC[C@]43C)[C@@H]2C1 [Compound T23] | 2.01 ± 0.53^e fold | 4.16 ± 1.19 nM | 1.9^e fold | 0.0185 µM |  |  |  |  |  |
| CC1(C)CC[C@]2(CNC(=O)OC(C)(C)C)CC[C@]3(C)[C@H](C(=O)C=C4[C@@]5(C)C=C(C#N)C(=O)C(C)(C)[C@@H]5CC[C@]43C)[C@@H]2C1 [CC1, reference compound] | 2.06 ± 0.56^e fold | 5.04 ± 2.62 nM | 2.1 ± 0.00^a fold | 0.0211 ± 0.00475 µM |  |  |  |  |  |
| CC1(C)CC[C@]2(n3ccoc3=O)CC[C@]3(C)[C@H](C(=O)C=C4[C@@]5(C)C=C(C#N)C(=O)C(C)(C)[C@@H]5CC[C@]43C)[C@@H]2C1 [Compound T40] | 1.37 ± 0.18^d fold | 5.56 ± 0.72 nM | 1.8^e fold | 0.0196 µM |  |  |  |  |  |
| CC(=O)N(C)C[C@]12CCC(C)(C)C[C@H]1[C@H]1C(=O)C=C3[C@@]4(C)C=C(C#N)C(=O)C(C)(C)[C@@H]4CC[C@@]3(C)[C@]1(C)CC2 [Compound T7] | 0.49 ± 0.14^e fold | 0.84 ± 0.37 nM | 0.5 ± 0.14^a fold | 0.0068 ± 3e-05 µM |  |  |  |  |  |
| CC1(C)CC[C@]2(n3cccn3)CC[C@]3(C)[C@H](C(=O)C=C4[C@@]5(C)C=C(C#N)C(=O)C(C)(C)[C@@H]5CC[C@]43C)[C@@H]2C1 [Compound T32] | 2.58 ± 0.60^e fold | 4.89 ± 1.42 nM | 2.8 ± 0.62^f fold | 0.0323 ± 0.00139 µM |  |  |  |  |  |
| Cn1ccn([C@]23CCC(C)(C)C[C@H]2[C@H]2C(=O)C=C4[C@@]5(C)C=C(C#N)C(=O)C(C)(C)[C@@H]5CC[C@@]4(C)[C@]2(C)CC3)c1=O [Compound T46] | 2.62 ± 0.10^d fold | 10.7 ± 1.35 nM | 3.0^e fold | 0.0316 µM |  |  |  |  |  |
| C[C@@H]1C(=O)C(C#N)=C[C@]2(C)C3=CC(=O)[C@@H]4[C@@H]5CC(C)(C)CC[C@]5(CN5CCCC5=O)CC[C@@]4(C)[C@]3(C)CC[C@@H]12 [Compound T66] | 0.39 ± 0.09^e fold | 0.45 ± 0.09 nM | 0.4^e fold | 0.0046 µM |  |  |  |  |  |
| CC1(C)CC[C@]2(CN3CCOC3=O)CC[C@]3(C)[C@H](C(=O)C=C4[C@@]5(C)C=C(C#N)C(=O)C(C)(C)[C@@H]5CC[C@]43C)[C@@H]2C1 [Compound T13] | 0.65 ± 0.21^e fold | 1.74 ± 0.55 nM | 0.5^e fold | 0.00512 µM |  |  |  |  |  |
| COC(=O)[C@]12CCC(C)(C)C[C@H]1[C@H]1C(=O)C=C3[C@@]4(C)C=C(C#N)C(=O)C(C)(C)[C@@H]4CC[C@@]3(C)[C@]1(C)CC2 [RTA 402, reference compound] | 1.00 ± 0.00 fold | 2.58 ± 1.19 nM | 1.00 fold | 0.0118 ± 0.0029 µM |  |  |  |  |  |
| CC1(C)CC[C@]2(NNC(=O)C(F)(F)F)CC[C@]3(C)[C@H](C(=O)C=C4[C@@]5(C)C=C(C#N)C(=O)C(C)(C)[C@@H]5CC[C@]43C)[C@@H]2C1 [Compound T56] | 1.70 ± 0.32^d fold | 7.04 ± 1.91 nM | 1.5^e fold | 0.0155 µM |  |  |  |  |  |
| CNC(=O)NC[C@]12CCC(C)(C)C[C@H]1[C@H]1C(=O)C=C3[C@@]4(C)C=C(C#N)C(=O)C(C)(C)[C@@H]4CC[C@@]3(C)[C@]1(C)CC2 [Compound T8] | 0.21 fold and 0.21 ± 0.05^d fold | 0.46 nM | 0.2 ± 0.06^a fold | 0.0028 ± 4e-05 µM | roughly 37 times |  |  |  |  |
| CC1(C)CC[C@]2(CNC(=O)CF)CC[C@]3(C)[C@H](C(=O)C=C4[C@@]5(C)C=C(C#N)C(=O)C(C)(C)[C@@H]5CC[C@]43C)[C@@H]2C1 [Compound T67] | 0.38 ± 0.15^d fold |  | 0.3^e fold |  |  | 0.51 ± 0.31 nM | 0.0033 µM |  |  |
| CN1CCN([C@]23CCC(C)(C)C[C@H]2[C@H]2C(=O)C=C4[C@@]5(C)C=C(C#N)C(=O)C(C)(C)[C@@H]5CC[C@@]4(C)[C@]2(C)CC3)C1=O [Compound T31] | 3.13 ± 0.36^d fold | 12.6 ± 1.65 nM | 4.3^e fold | 0.0455 µM |  |  |  |  |  |
| C[C@@H]1C(=O)C(C#N)=C[C@]2(C)C3=CC(=O)[C@@H]4[C@@H]5CC(C)(C)CC[C@]5(CN5CCC5=O)CC[C@@]4(C)[C@]3(C)CC[C@@H]12 [Compound T65] | 0.36 ± 0.12^e fold | 0.42 ± 0.13 nM | 0.4^e fold | 0.0047 µM |  |  |  |  |  |
| CC1(C)CC[C@]2(N3CCC(=O)N3)CC[C@]3(C)[C@H](C(=O)C=C4[C@@]5(C)C=C(C#N)C(=O)C(C)(C)[C@@H]5CC[C@]43C)[C@@H]2C1 [Compound T58] | 2.97 ± 0.65^d fold | 12.2 ± 3.32 nM | 5.3^e fold | 0.0565 µM |  |  |  |  |  |
| CNC(=O)N(C)C[C@]12CCC(C)(C)C[C@H]1[C@H]1C(=O)C=C3[C@@]4(C)C=C(C#N)C(=O)C(C)(C)[C@@H]4CC[C@@]3(C)[C@]1(C)CC2 [Compound T9] | 0.38 ± 0.15^e fold | 0.7 ± 0.18 nM | 0.5 ± 0.20^a fold | 0.0072 ± 0.00077 µM |  |  |  |  |  |
| CC(=O)NC[C@]12CCC(C)(C)C[C@H]1[C@H]1C(=O)C=C3[C@@]4(C)C=C(C#N)C(=O)C(C)(C)[C@@H]4CC[C@@]3(C)[C@]1(C)CC2 [Compound T3] | 0.17 fold and 0.17 ± 0.04^e fold | 0.44 nM | 0.2 ± 0.08^a fold | 0.0024 ± 0.00044 µM |  |  |  | more than 29 times |  |
| CC1(C)CC[C@]2(CN3CC(O)C3)CC[C@]3(C)[C@H](C(=O)C=C4[C@@]5(C)C=C(C#N)C(=O)C(C)(C)[C@@H]5CC[C@]43C)[C@@H]2C1 [Compound T28] | 1.09 ± 0.16^e fold | 2.83 ± 0.92 nM | 0.9 ± 0.12^a fold | 0.0139 ± 0.00157 µM |  |  |  |  |  |
| CC1(C)CC[C@]2(CN3CC(F)(F)C3)CC[C@]3(C)[C@H](C(=O)C=C4[C@@]5(C)C=C(C#N)C(=O)C(C)(C)[C@@H]5CC[C@]43C)[C@@H]2C1 [Compound T27] | 8.68 ± 2.12^e fold | 17.8 ± 1.79 nM | 1.8^e fold | 0.0266 µM |  |  |  |  |  |
| CC1(C)CC[C@]2(N3CCOC3=O)CC[C@]3(C)[C@H](C(=O)C=C4[C@@]5(C)C=C(C#N)C(=O)C(C)(C)[C@@H]5CC[C@]43C)[C@@H]2C1 [Compound T34] | 1.23 ± 0.23^e fold | 2.23 ± 0.57 nM | 2.2^e fold | 0.0236 µM |  |  |  |  |  |
| C=CC(=O)NC[C@]12CCC(C)(C)C[C@H]1[C@H]1C(=O)C=C3[C@@]4(C)C=C(C#N)C(=O)C(C)(C)[C@@H]4CC[C@@]3(C)[C@]1(C)CC2 [Compound T16] | 0.21 fold and 0.21 ± 0.05^d fold | 0.37 nM | 0.2 ± 0.05^f fold | 0.002 ± 0.00018 µM |  |  |  |  | more than 6 times |
| CC1(C)CC[C@]2(CNC(=O)C(C)(F)F)CC[C@]3(C)[C@H](C(=O)C=C4[C@@]5(C)C=C(C#N)C(=O)C(C)(C)[C@@H]5CC[C@]43C)[C@@H]2C1 [Compound T62] | 0.51 ± 0.18^d fold | 2.12 ± 0.85 nM | 0.3^e fold | 0.0035 µM |  |  |  |  |  |
| CNC[C@]12CCC(C)(C)C[C@H]1[C@H]1C(=O)C=C3[C@@]4(C)C=C(C#N)C(=O)C(C)(C)[C@@H]4CC[C@@]3(C)[C@]1(C)CC2 [Compound T6] | 1.60 ± 0.23^e fold | 3.35 ± 1.62 nM | 1.2 ± 0.35^a fold | 0.0169 ± 3e-05 µM |  |  |  |  |  |
| CC1(C)CC[C@]2(CNCCO)CC[C@]3(C)[C@H](C(=O)C=C4[C@@]5(C)C=C(C#N)C(=O)C(C)(C)[C@@H]5CC[C@]43C)[C@@H]2C1 [Compound T12] | 4.07 ± 1.08^e fold | 7.47 ± 0.85 nM | 1.7^e fold | 0.0218 µM |  |  |  |  |  |
| CC1(C)CC[C@]2(CN3CC(=O)C3)CC[C@]3(C)[C@H](C(=O)C=C4[C@@]5(C)C=C(C#N)C(=O)C(C)(C)[C@@H]5CC[C@]43C)[C@@H]2C1 [Compound T29] | 1.49 ± 0.30^d fold | 6.09 ± 1.46 nM | 1.2^e fold | 0.0133 µM |  |  |  |  |  |
| CN1CCN(C[C@]23CCC(C)(C)C[C@H]2[C@H]2C(=O)C=C4[C@@]5(C)C=C(C#N)C(=O)C(C)(C)[C@@H]5CC[C@@]4(C)[C@]2(C)CC3)C1=O [Compound T15] | 0.64 ± 0.26^d fold | 1.18 ± 0.5 nM | 0.5^e fold | 0.00607 µM |  |  |  |  |  |

— US20230111914A1, “SYNTHETIC TRITERPENOIDS WITH NITROGEN-BASED SUBSTITUENTS AT C-17 AND METHODS OF USE THEREOF” (REATA PHARMACEUTICALS, INC., priority 2019, published 2023)
